# How the values were obtained:
# mould = test: Tortilla spray application shelf life study (mould growth); details: 21.7° C., no natamycin (variables 2, 3)
# Procedure: A gamma-cyclodextrin-natamycin solution was produced employing a high pH system and the obtained solution was spray dried. Tortillas were treated with a standard natamycin (Natamax® SF) treatment, the spray-dried gamma-cyclodextrin-natamycin product, and traditional chemical preservatives to assess relative antifungal efficacy in baked goods.
# Sample Variables in the Tortilla Treatments: • 1. Control—Deionized Water • 2. Control—Gamma-cyclodextrin (0.5% solution) • 3. Traditional Chemical Preservatives (fumarate, sorbate, propionate) • 4. Natamax® SF (target of ˜12 ppm natamycin on finished product) • 5. Gamma-cyclodextrin-natamycin powder (target of ˜12 ppm natamycin on finished product) • 6. Gamma-cyclodextrin-natamycin powder (target of ˜6 ppm natamycin on finished product)
# For the spray application, each of the solutions were sprayed on 36 tortillas (about seven inches in diameter) using roughly the same spray volume. The tortillas were held on standard storage racks at 21.7° C. and monitored 0 to 30 days for mould growth.
# [1] = Antifungal activity on baked goods
# From the text: Studies were done wherein aqueous solutions of natamycin-cyclodextrin complexes have been applied onto shredded cheese or used in pharmaceutical preparations.
# [2] = From the text: Natamycin is sensitive to both high and low pH values and is degraded under such conditions. Despite this fact, the present invention utilizes such pH ranges. […] Typically the pH value is in the range of 10 to 12. In another embodiment the pH value of the aqueous solution in the complexation step is in the range of 6 or lower, preferably 1 to 4. Typically the pH value is lower than 4, such as in the range of 3 to 4. […] The tests in FIG. 1 and FIG. 2 were made through mixing natamycin (1%) and cyclodextrin (1%) with water (98%)
# yeasts and moulds = details: cited from earlier work
# [3] = cited from earlier work
compound,measurement,setting,value
"OC[C@H]1O[C@@H]2O[C@H]3[C@H](O)[C@@H](O)[C@@H](O[C@H]4[C@H](O)[C@@H](O)[C@@H](O[C@H]5[C@H](O)[C@@H](O)[C@@H](O[C@H]6[C@H](O)[C@@H](O)[C@@H](O[C@H]7[C@H](O)[C@@H](O)[C@@H](O[C@H]8[C@H](O)[C@@H](O)[C@@H](O[C@H]9[C@H](O)[C@@H](O)[C@@H](O[C@H]1[C@H](O)[C@H]2O)O[C@@H]9CO)O[C@@H]8CO)O[C@@H]7CO)O[C@@H]6CO)O[C@@H]5CO)O[C@@H]4CO)O[C@@H]3CO [Variable 2, Gamma-cyclodextrin]",Number of moulded tortillas,mould; Day 0,0
same,Number of moulded tortillas,mould; Day 5,20
same,Number of moulded tortillas,mould; Day 6,25
same,Number of moulded tortillas,mould; Day 7,26
same,Number of moulded tortillas,mould; Day 8,28
same,Number of moulded tortillas,mould; Day 9,28
same,Number of moulded tortillas,mould; Day 12,30
same,Number of moulded tortillas,mould; Day 13,30
same,Number of moulded tortillas,mould; Day 14,30
same,Number of moulded tortillas,mould; Day 15,30
same,Number of moulded tortillas,mould; Day 16,30
same,Number of moulded tortillas,mould; Day 19,30
same,Number of moulded tortillas,mould; Day 20,30
same,Number of moulded tortillas,mould; Day 21,30
same,Number of moulded tortillas,mould; Day 26,30
same,Number of moulded tortillas,mould; Day 27,30
same,Number of moulded tortillas,mould; Day 28,30
same,Number of moulded tortillas,mould; Day 29,30
same,Number of moulded tortillas,mould; Day 30,30
same,antifungal activity when applied on baked goods,[1],no antifungal activity
C[C@@H]1C/C=C/C=C/C=C/C=C/[C@H](O[C@@H]2O[C@H](C)[C@@H](O)[C@H](N)[C@@H]2O)C[C@@H]2O[C@](O)(C[C@@H](O)C[C@H]3O[C@@H]3/C=C/C(=O)O1)C[C@H](O)[C@H]2C(=O)O [Natamycin],percentage of solubilized natamycin,[2],lower than 4%
same,concentrations inhibiting most strains,yeasts and moulds,1-40 ppm
same,maximum water solubility,[3],around 40 ppm

# From patent publication US20150216189A1, “NATAMYCIN-CYCLODEXTRIN COMPLEXES FOR USE IN FOODSTUFF, PROCESS FOR THEIR MANUFACTURE AND USE THEREOF” (priority 2011, published 2015)
